Columns and labels:
[1] = Apparent solubility test (USP <1236>); details: for solubility: 20 °C, thermodynamic from solid
Method: Then, 200 μL of each solvent was added and stirred at 400 rpm. The temperature of the sample was maintained at 20 ± 2 °C. After shaking for 30 s every 5 min, 200 μL of each solvent was added until no particles of the API were visible. The apparent solubility of the two main components was estimated through the point at which all of the API dissolved and became clear.

[2] = Stability study of the APIs in pH buffers (total impurity by HPLC); assay type: physicochemical
Method: The column used was the Gemini C18 column (5.0 μm, 250 mm). Mobile phase A of the impurity study was prepared with KH2PO4 buffer (v/v, solution adjusted to pH 6.0 with 1 M KOH): acetonitrile: methanol = 85: 10: 5 (v/v/v), and mobile phase B was prepared with 90% acetonitrile. The mobile phase was filtered through a 0.4 μm polypropylene membrane filter and degassed via sonication. The diluted solution was prepared with KH2PO4 buffer (v/v, solution adjusted to pH 6.0 with 1 M KOH) and acetonitrile at a ratio of 7:3 (v/v). The wavelength, flow rate, and injection volume were set to 220 nm, 1.0 mL/min, and 20 μL, respectively. The column and sample thermostats were set to 35 °C and 5 °C, respectively. In the case of the impurity study, the analysis was performed by changing the composition of the mobile phase for 80 min using a gradient elution method for 80 min.
[…] […] We performed a calibration test, and the sample was diluted with a diluted solution and prepared at a concentration of 0.05–1 mg/mL.

[3] = oral; cited from earlier work
[4] = Equilibrium solubility test (HPLC); details: thermodynamic from solid
Method: The column used was an Agilent C18 column (5.0 μm, 4.6 × 150 mm). The mobile phase and diluted solution of the content and dissolution studies analyses were prepared with 0.5% triethylamine buffer (v/v, pH 6.8 adjusted with 85% phosphoric acid) and acetonitrile at a ratio of 7:3 (v/v). The mobile phase was filtered through a 0.45-μm polypropylene membrane filter and degassed via sonication. The wavelength, flow rate, and injection volume were set to 205 nm, 1.5 mL/min, and 20 μL, respectively. In the case of the content and dissolution studies, the mobile phase was constantly flowed for 18 min via an isocratic elution method and analyzed.
The equilibrium solubility test was used to calculate the input amount through the apparent solubility test result, and an excess of the API was placed in each beaker and stirred at 400 rpm. At 0, 12, and 24 h immediately after the overdose, 2 mL samples were taken and filtered through a 0.45-μm regenerated cellulose syringe filter. The supernatant of the filtered solution was taken and diluted with a content analysis diluted solution. […] A calibration test was performed, and the sample was diluted with a diluted solution and prepared at a concentration of 0.05–1 mg/mL.

[5] = cited from earlier work

SMILES: N[C@@H](CC(=O)N1CCn2c(nnc2C(F)(F)F)C1)Cc1cc(F)c(F)cc1F.O.O=P(O)(O)O [Sitagliptin, (R)-3-Amino-1-(3-(trifluoromethyl)-5,6-dihydro-[1,2,4]triazolo[4,3-a]pyrazin-7(8H)-yl)-4-(2,4,5-trifluorophenyl)butan-1-one phosphate monohydrate]
- solubility ([1]; organic solvent or mixture): < 0.1 mg/mL
- solubility ([1]; pH 1.2, aqueous buffer): 1 to 10 mg/mL
- solubility ([1]; pH 2, aqueous buffer): 1 to 10 mg/mL
- solubility ([1]; pH 3, aqueous buffer): 1 to 10 mg/mL
- solubility ([1]; pH 4, aqueous buffer): 1 to 10 mg/mL
- solubility ([1]; pH 5, aqueous buffer): 1 to 10 mg/mL
- solubility ([1]; pH 6, aqueous buffer): 1 to 10 mg/mL
- solubility ([1]; pH 6.8, aqueous buffer): 1 to 10 mg/mL
- solubility ([1]; pH 7, aqueous buffer): 1 to 10 mg/mL
- solubility ([1]; pH 8, aqueous buffer): 1 to 10 mg/mL
- solubility ([1]; pH 9, aqueous buffer): 1 to 10 mg/mL
- solubility ([1]; pH 10, aqueous buffer): 0.1 to 1 mg/mL
- solubility ([1]; pH 11, aqueous buffer): 1 to 10 mg/mL
- solubility ([1]; pH 12, aqueous buffer): 1 to 10 mg/mL
- solubility ([1]; water): 1 to 10 mg/mL
- apparent solubility, USP <1236> term ([1]; other solvents (water, pH 1.2 to 12.0 buffers)): soluble
- Total Impurity ([2]; pH 1.2 buffer, 20 ± 2 °C/60 ± 5% RH, 3 Days): 0.01%
- Total Impurity ([2]; pH 1.2 buffer, 20 ± 2 °C/60 ± 5% RH, 7 Days): 0.09%
- Total Impurity ([2]; pH 1.2 buffer, 40 ± 2 °C/75 ± 5% RH, 3 Days): 0.02%
- Total Impurity ([2]; pH 1.2 buffer, 40 ± 2 °C/75 ± 5% RH, 7 Days): 0.14%
- Total Impurity ([2]; pH 1.2 buffer, Initial): 0.02%
- Total Impurity ([2]; pH 2.0 buffer, 20 ± 2 °C/60 ± 5% RH, 3 Days): 0.03%
- Total Impurity ([2]; pH 2.0 buffer, 20 ± 2 °C/60 ± 5% RH, 7 Days): 0.23%
- Total Impurity ([2]; pH 2.0 buffer, 40 ± 2 °C/75 ± 5% RH, 3 Days): 0.08%
- Total Impurity ([2]; pH 2.0 buffer, 40 ± 2 °C/75 ± 5% RH, 7 Days): 0.59%
- Total Impurity ([2]; pH 2.0 buffer, Initial): 0.02%
- Total Impurity ([2]; pH 3.0 buffer, 20 ± 2 °C/60 ± 5% RH, 3 Days): 0.08%
- Total Impurity ([2]; pH 3.0 buffer, 20 ± 2 °C/60 ± 5% RH, 7 Days): 1.42%
- Total Impurity ([2]; pH 3.0 buffer, 40 ± 2 °C/75 ± 5% RH, 3 Days): 0.37%
- Total Impurity ([2]; pH 3.0 buffer, 40 ± 2 °C/75 ± 5% RH, 7 Days): 5.64%
- Total Impurity ([2]; pH 3.0 buffer, Initial): 0.08%
- Total Impurity ([2]; pH 4.0 buffer, 20 ± 2 °C/60 ± 5% RH, 3 Days): 0.00%
- Total Impurity ([2]; pH 4.0 buffer, 20 ± 2 °C/60 ± 5% RH, 7 Days): 0.01%
- Total Impurity ([2]; pH 4.0 buffer, 40 ± 2 °C/75 ± 5% RH, 3 Days): 0.00%
- Total Impurity ([2]; pH 4.0 buffer, 40 ± 2 °C/75 ± 5% RH, 7 Days): 0.02%
- Total Impurity ([2]; pH 4.0 buffer, Initial): 0.02%
- Total Impurity ([2]; pH 5.0 buffer, 20 ± 2 °C/60 ± 5% RH, 3 Days): 0.00%
- Total Impurity ([2]; pH 5.0 buffer, 20 ± 2 °C/60 ± 5% RH, 7 Days): 0.03%
- Total Impurity ([2]; pH 5.0 buffer, 40 ± 2 °C/75 ± 5% RH, 3 Days): 0.00%
- Total Impurity ([2]; pH 5.0 buffer, 40 ± 2 °C/75 ± 5% RH, 7 Days): 0.03%
- Total Impurity ([2]; pH 5.0 buffer, Initial): 0.03%
- Total Impurity ([2]; pH 6.0 buffer, 20 ± 2 °C/60 ± 5% RH, 3 Days): 0.00%
- Total Impurity ([2]; pH 6.0 buffer, 20 ± 2 °C/60 ± 5% RH, 7 Days): 0.03%
- Total Impurity ([2]; pH 6.0 buffer, 40 ± 2 °C/75 ± 5% RH, 3 Days): 0.01%
- Total Impurity ([2]; pH 6.0 buffer, 40 ± 2 °C/75 ± 5% RH, 7 Days): 0.06%
- Total Impurity ([2]; pH 6.0 buffer, Initial): 0.05%
- Total Impurity ([2]; pH 6.8 buffer, 20 ± 2 °C/60 ± 5% RH, 3 Days): 0.01%
- Total Impurity ([2]; pH 6.8 buffer, 20 ± 2 °C/60 ± 5% RH, 7 Days): 0.06%
- Total Impurity ([2]; pH 6.8 buffer, 40 ± 2 °C/75 ± 5% RH, 3 Days): 0.00%
- Total Impurity ([2]; pH 6.8 buffer, 40 ± 2 °C/75 ± 5% RH, 7 Days): 0.03%
- Total Impurity ([2]; pH 6.8 buffer, Initial): 0.04%
- Total Impurity ([2]; pH 7.0 buffer, 20 ± 2 °C/60 ± 5% RH, 3 Days): 0.00%
- Total Impurity ([2]; pH 7.0 buffer, 20 ± 2 °C/60 ± 5% RH, 7 Days): 0.03%
- Total Impurity ([2]; pH 7.0 buffer, 40 ± 2 °C/75 ± 5% RH, 3 Days): 0.00%
- Total Impurity ([2]; pH 7.0 buffer, 40 ± 2 °C/75 ± 5% RH, 7 Days): 0.03%
- Total Impurity ([2]; pH 7.0 buffer, Initial): 0.00%
- Total Impurity ([2]; pH 8.0 buffer, 20 ± 2 °C/60 ± 5% RH, 3 Days): 0.01%
- Total Impurity ([2]; pH 8.0 buffer, 20 ± 2 °C/60 ± 5% RH, 7 Days): 0.03%
- Total Impurity ([2]; pH 8.0 buffer, 40 ± 2 °C/75 ± 5% RH, 3 Days): 0.00%
- Total Impurity ([2]; pH 8.0 buffer, 40 ± 2 °C/75 ± 5% RH, 7 Days): 0.03%
- Total Impurity ([2]; pH 8.0 buffer, Initial): 0.06%
- Total Impurity ([2]; pH 9.0 buffer, 20 ± 2 °C/60 ± 5% RH, 3 Days): 0.00%
- Total Impurity ([2]; pH 9.0 buffer, 20 ± 2 °C/60 ± 5% RH, 7 Days): 0.00%
- Total Impurity ([2]; pH 9.0 buffer, 40 ± 2 °C/75 ± 5% RH, 3 Days): 0.00%
- Total Impurity ([2]; pH 9.0 buffer, 40 ± 2 °C/75 ± 5% RH, 7 Days): 0.03%
- Total Impurity ([2]; pH 9.0 buffer, Initial): 0.00%
- Total Impurity ([2]; pH 10.0 buffer, 20 ± 2 °C/60 ± 5% RH, 3 Days): 0.00%
- Total Impurity ([2]; pH 10.0 buffer, 20 ± 2 °C/60 ± 5% RH, 7 Days): 0.03%
- Total Impurity ([2]; pH 10.0 buffer, 40 ± 2 °C/75 ± 5% RH, 3 Days): 0.00%
- Total Impurity ([2]; pH 10.0 buffer, 40 ± 2 °C/75 ± 5% RH, 7 Days): 0.03%
- Total Impurity ([2]; pH 10.0 buffer, Initial): 0.02%
- Total Impurity ([2]; pH 11.0 buffer, 20 ± 2 °C/60 ± 5% RH, 3 Days): 0.00%
- Total Impurity ([2]; pH 11.0 buffer, 20 ± 2 °C/60 ± 5% RH, 7 Days): 0.03%
- Total Impurity ([2]; pH 11.0 buffer, 40 ± 2 °C/75 ± 5% RH, 3 Days): 0.00%
- Total Impurity ([2]; pH 11.0 buffer, 40 ± 2 °C/75 ± 5% RH, 7 Days): 0.04%
- Total Impurity ([2]; pH 11.0 buffer, Initial): 0.04%
- Total Impurity ([2]; pH 12.0 buffer, 20 ± 2 °C/60 ± 5% RH, 3 Days): 0.00%
- Total Impurity ([2]; pH 12.0 buffer, 20 ± 2 °C/60 ± 5% RH, 7 Days): 0.03%
- Total Impurity ([2]; pH 12.0 buffer, 40 ± 2 °C/75 ± 5% RH, 3 Days): 0.00%
- Total Impurity ([2]; pH 12.0 buffer, 40 ± 2 °C/75 ± 5% RH, 7 Days): 0.03%
- Total Impurity ([2]; pH 12.0 buffer, Initial): 0.03%
- bioavailability [3]: approximately 87%
- solubility thermodynamic at 12 h ([4]; pH 1.2, aqueous buffer): 1.94 mg/mL
- solubility thermodynamic at 24 h ([4]; pH 1.2, aqueous buffer): 1.94 mg/mL
- solubility thermodynamic at 12 h ([4]; pH 2, aqueous buffer): 3.11 mg/mL
- solubility thermodynamic at 24 h ([4]; pH 2, aqueous buffer): 3.11 mg/mL
- solubility thermodynamic at 12 h ([4]; pH 3, aqueous buffer): 1.7 mg/mL
- solubility thermodynamic at 24 h ([4]; pH 3, aqueous buffer): 1.7 mg/mL
- solubility thermodynamic at 12 h ([4]; pH 4, aqueous buffer): 1.61 mg/mL
- solubility thermodynamic at 24 h ([4]; pH 4, aqueous buffer): 1.61 mg/mL
- solubility thermodynamic at 12 h ([4]; pH 5, aqueous buffer): 1.51 mg/mL
- solubility thermodynamic at 24 h ([4]; pH 5, aqueous buffer): 1.52 mg/mL
- solubility thermodynamic at 12 h ([4]; pH 6, aqueous buffer): 1.16 mg/mL
- solubility thermodynamic at 24 h ([4]; pH 6, aqueous buffer): 1.16 mg/mL
- solubility thermodynamic at 12 h ([4]; pH 6.8, aqueous buffer): 2.67 mg/mL
- solubility thermodynamic at 12 h ([4]; pH 7, aqueous buffer): 2.76 mg/mL
- solubility thermodynamic at 24 h ([4]; pH 7, aqueous buffer): 2.76 mg/mL
- solubility thermodynamic at 12 h ([4]; pH 8, aqueous buffer): 1.42 mg/mL
- solubility thermodynamic at 24 h ([4]; pH 8, aqueous buffer): 1.43 mg/mL
- solubility thermodynamic at 12 h ([4]; pH 9, aqueous buffer): 1.5 mg/mL
- solubility thermodynamic at 24 h ([4]; pH 9, aqueous buffer): 1.5 mg/mL
- solubility thermodynamic at 12 h ([4]; pH 10, aqueous buffer): 0.96 mg/mL
- solubility thermodynamic at 24 h ([4]; pH 10, aqueous buffer): 0.97 mg/mL
- solubility thermodynamic at 12 h ([4]; pH 11, aqueous buffer): 1.44 mg/mL
- solubility thermodynamic at 24 h ([4]; pH 11, aqueous buffer): 1.44 mg/mL
- solubility thermodynamic at 12 h ([4]; pH 12, aqueous buffer): 1.61 mg/mL
- solubility thermodynamic at 24 h ([4]; pH 12, aqueous buffer): 1.6 mg/mL
- solubility thermodynamic at 12 h ([4]; water): 1.42 mg/mL
- solubility thermodynamic at 24 h ([4]; water): 1.42 mg/mL
- biopharmaceutics classification system (BCS) [5]: Class 1

Source: paper PMC10141516 (Pharmaceutics, 2023)
